{
  "source": "paper PMC3897731",
  "about": "“Antimicrobial Properties and Membrane-Active Mechanism of a Potential α-Helical Antimicrobial Derived from Cathelicidin PMAP-36” (PLoS ONE, 2014)",
  "key": {"E. coli ATCC 25922": {"test_system": "E. coli ATCC 25922", "assay": "FACScan analysis of membrane integrity (propidium iodide)", "format": "cell-based, Escherichia coli", "experimental": "The integrity of the bacterial cell membranes after peptide treatment was determined using a previously described method. In brief, mid-logarithmic phase E. coli ATCC 25922 were harvested by centrifugation and washed three times with 10 mM PBS solution. The peptides (1×MIC and 2×MIC) were added and incubated for 30 min at 28°C with constant shaking at 140 rpm, and then, propidium iodide (PI, 10 µg/ml final concentration, Sigma) was added and incubated for a further 30 min at 4°C. After incubation, the unbound dye was removed via excessive washing of cells with PBS. Flow cytometry analysis was conducted using a FACScan instrument (Becton–Dickinson, San Jose, CA). E. coli cells were incubated with PI without peptide treated as negative control."}, "[1]": {"test_system": "Staphylococcus epidermidis ATCC 12228", "conditions": "broth microdilution, MH broth, 1×10^5 CFU/ml, 24 h at 37°C, visible turbidity, triplicate", "experimental": "(§1) The antimicrobial activity of each peptide was determined against the following bacteria strains: Escherichia coli ATCC 25922, Escherichia coli UB1005, Salmonella enterica serovar typhimurium C77-31, Staphylococcus aureus ATCC 29213, Staphylococcus aureus ATCC 25923 and Staphylococcus epidermidis ATCC 12228. The minimal inhibitory concentrations (MICs) of the peptides were measured according to a modified version of the National Committee for Clinical Laboratory Standards (NCCLS) broth microdilution method as described previously. Briefly, mid-logarithmic phase bacteria were cultured in Mueller-Hinton (MH) broth and then diluted to 1×10^5 CFU/ml. Equal volumes (50 µl) of microorganism solution and 2-fold serially diluted different concentrations (0.25–128 µM) peptides in 0.01% (v/v) acetic acid and 0.2% (w/v) bovine serum albumin (BSA, Sigma) were added to each well of the sterile 96-well plate. After incubation for 24 h at 37°C, MICs were determined as the lowest concentration of peptides that prevented visible turbidity by visual inspection. The tests were performed in triplicate. Cultures without peptides and uninoculated MH broth were employed as positive and negative controls, respectively. In addition, the salt stability of the peptides was tested in the MIC assay mentioned above."}, "Escherichia coli UB1005": {"test_system": "Escherichia coli UB1005", "conditions": "broth microdilution, MH broth, 1×10^5 CFU/ml, 24 h at 37°C, visible turbidity, triplicate", "experimental": "as §1"}, "[2]": {"test_system": "Salmonella enterica serovar typhimurium C77-31", "conditions": "broth microdilution, MH broth, 1×10^5 CFU/ml, 24 h at 37°C, visible turbidity, triplicate", "experimental": "as §1"}, "[3]": {"test_system": "gram-negative and gram-positive bacteria (six strains tested)", "conditions": "24 h", "experimental": "as §1"}, "human erythrocytes": {"test_system": "human erythrocytes", "assay": "Hemolytic activity", "format": "cell-based", "conditions": "1 h at 37°C", "experimental": "The hemolytic activity of the peptides was measured as the amount of hemoglobin released by the lysis of human erythrocytes. Briefly, 1 ml of fresh human blood cells (hRBCs) obtained from a healthy donor (Na Dong, Harbin, China) in a polycarbonate tube containing heparin was centrifuged at 1,000×g for 5 min at 4°C [16]. The experimental protocol was reviewed and approved by the ethics committee of the Northeast Agricultural University Hospital. The erythrocytes obtained were washed three times with phosphate-buffered saline (PBS) solution (pH 7.2) and resuspended in PBS. A 50 µl volume of the erythrocyte solution was incubated with 50 µl of various peptides dissolved in PBS for 1 h at 37°C. Intact erythrocytes were pelleted by centrifugation at 1,000×g for 5 min at 4°C, and the supernatant was transferred to a new 96-well plate. The release of hemoglobin was monitored by measuring the absorbance at 570 nm. As negative and positive controls, hRBCs in PBS without the peptide and 0.1% Triton X-100 were employed, respectively."}, "E. coli UB1005": {"test_system": "E. coli UB1005", "assay": "Inner (cytoplasmic) membrane depolarization, diSC3(5)", "format": "cell-based, Escherichia coli", "conditions": "0.4 µM diSC3(5), monitored over 360 s", "experimental": "The cytoplasmic membrane depolarization activity of the peptides was measured by using E. coli UB1005 and the membrane potential sensitive fluorescent dye diSC3(5) as described previously. Briefly, mid-logarithmic phase E. coli were washed with 5 mM sodium HEPES buffer, pH 7.4, containing 20 mM glucose, and resuspended to an OD600 of 0.05 in the same buffer. The cell suspension was incubated with 0.4 µM diSC3(5) until a stable reduction of fluorescence was achieved (approximately 1 h). Then KCl was added to a final concentration of 0.1 M to equilibrate the cytoplasmic and external K^+. Two milliliters of the cell suspension were placed in a 1 cm cuvette, and the peptides were added to achieve the desired concentrations. Changes in fluorescence were recorded using an F-4500 fluorescence spectrophotometer (Hitachi, Japan) with an excitation wavelength of 622 nm and an emission wavelength of 670 nm. 0.1% Triton X-100 was employed as positive controls."}},
  "data": [
    {"smiles": "CC[C@H](C)[C@H](NC(=O)CN)C(=O)NCC(=O)N[C@@H](C)C(=O)N[C@H](C(=O)N[C@@H](CC(C)C)C(=O)N[C@@H](CCCCN)C(=O)N[C@H](C(=O)N[C@@H](CC(C)C)C(=O)N[C@H](C(=O)N[C@H](C(=O)NCC(=O)N[C@@H](CC(C)C)C(=O)N1CCC[C@H]1C(=O)N[C@@H](C)C(=O)N[C@@H](CC(C)C)C(=O)N[C@H](C(=O)N[C@@H](CO)C(=O)N[C@@H](Cc1c[nH]c2ccccc12)C(=O)N[C@H](C(=O)N[C@@H](CCCCN)C(=O)N[C@@H](CCCNC(=N)N)C(=O)N[C@@H](CCCCN)C(=O)N[C@@H](CCCNC(=N)N)C(=O)N[C@@H](CCC(N)=O)C(=O)N[C@@H](CCC(N)=O)C(N)=O)[C@@H](C)CC)[C@@H](C)CC)[C@@H](C)O)[C@@H](C)O)C(C)C)C(C)C", "note": "[melittin, reference compound]", "values": [
      {"measurement": "Cells stained with PI", "setting": "E. coli ATCC 25922", "value": 40.7, "unit": "%"},
      {"measurement": "MIC S. epidermidis ATCC 12228", "setting": "[1]", "value": 0.5, "unit": "µM"},
      {"measurement": "MIC E. coli UB 1005", "setting": "Escherichia coli UB1005", "value": 2, "unit": "µM"},
      {"measurement": "MIC S. typhimurium C77-31", "setting": "[2]", "value": 2, "unit": "µM"},
      {"measurement": "GM, geometric mean of the MICs", "setting": "[3]", "value": 2.52, "unit": "µM"},
      {"measurement": "Concentration causing complete hemolysis", "setting": "human erythrocytes", "value": 4, "unit": "µM"},
      {"measurement": "Cytoplasmic membrane depolarization (diSC3(5) fluorescence, in words)", "setting": "E. coli UB1005", "value": "induced dose-dependent increases in diSC3(5) fluorescence"}
    ]}
  ]
}
